Data taken from US20100021924A1, “Transgenic animal and methods for decreasing cardiac cell death via cardiac-specific sir2alpha overexpression” (priority 2005, published 2010).
“Also recorded” adds a separate entry of the source.

What was measured:
cardiac myocytes [1] = test: TUNEL staining of cultured cardiac myocytes; format: cell-based, rat; conditions: for TUNEL positive myocytes: compound alone
Procedure: Subsequently, it was determined whether cardiac myocyte death by Sir2α inhibition was due to apoptosis. […] To examine whether activation of caspase-3 was involved in myocyte death induced by NAM and TSA, the effect of DEVD-CHO, a cell permeable inhibitor of caspase-3, upon myocyte death was examined.
Primary Culture of Neonatal Rat Ventricular Myocytes. […] Myocytes were cultured under serum-free conditions for 48 hours before experiments.

cardiac myocytes [2] = test: Cell Death Detection ELISA (cytoplasmic mono- and oligo-nucleosomes); format: cell-based, rat; conditions: for mono- and oligo-nucleosomes in the cytoplasm (nuclear fragmentation): marker of apoptosis
Procedure: Myocytes were transduced with an adenoviral vector encoding LacZ (Ad-LacZ) or Sir2α (Ad-Sir2α) with or without serum for 48 hours followed by Cell Death ELISA (FIG. 1A). Alternatively, myocytes were transduced Ad-LacZ or Ad-Sir2α with or without H2O2 (100 μM) for 48 hours followed by Cell Death ELISA (FIG. 1B). […] Mean OD value of control was designated as 1. Each column represents mean from 3 different culture preparations.
(§1) Subsequently, it was determined whether cardiac myocyte death by Sir2α inhibition was due to apoptosis. […] Similar results were obtained using TUNEL staining. To examine whether activation of caspase-3 was involved in myocyte death induced by NAM and TSA, the effect of DEVD-CHO, a cell permeable inhibitor of caspase-3, upon myocyte death was examined.
(§2) Cardiac-specific overexpression of Sir2α was subsequently examined. […] After 7 days, most myocytes were dead in a low-density culture condition. […] It has been shown that pyruvate increases, while lactate decreases, the cellular NAD^+/NADH ratio, thereby positively or negatively regulating the activity of endogenous Sir2α (Fulco, et al. (2003) Mol. Cell 12:51-62).
(§3) Primary Culture of Neonatal Rat Ventricular Myocytes. Primary cultures of cardiac ventricular myocytes were prepared from 1-day-old Crl: (WI) BR-Wistar rats according to standard methods (Tomita, et al. (2003) Circ. Res. 93:12-22). Myocytes were cultured under serum-free conditions for 48 hours before experiments. Cell size and total protein content were obtained (Tomita, et al. (2003) supra).
Assays for Apoptosis. Histone-associated DNA fragments were quantitated by the Cell Death Detection ELISA (ROCHE; Yamamoto, et al. (2003) J. Clin. Invest. 111:1463-1474).

caspase-3 = test: Caspase-3 cleavage in cardiac myocytes; format: cell-based, rat; conditions: treated cardiac myocytes
Procedure: as §1
To further confirm that inhibition of endogenous Sir2α stimulates cardiac myocyte apoptosis, the effects of a dominant-negative Sir2α were examined. […] The level of cleaved caspase-3 was higher in dominant-negative Sir2α-transduced myocytes than in LacZ-transduced cells.
Immunoblot Analysis. Nuclear fractions were prepared as described (Tomita, et al. (2003) supra). Whole-cell lysates were obtained using Lysis Buffer A, containing 150 mmol/L NaCl, 50 mmol/L Tris, pH 7.5, 0.1 mmol/L Na3VO4, 1 mmol/L NaF, 0.5 mmol 4-(2-aminoethyl)benzenesulfonyl fluoride hydrochloride, 1% NONIDET P-40, 0.1% sodium dodecyl sulfate, 0.5% deoxycholic acid, 0.5 μg/mL leupeptin, and 0.5 μg/mL aprotinin. For immunoblotting, the antimurine Sir2α antibody (1:10 000) was used.

mouse hearts = format: in vivo, mice; parameters: LV contraction (EF, % FS): dose or concentration left out as unconfirmed
Procedure: Tg-Sirt2α (n=6) and NTg (n=4) mice from line 40 were treated with ip injection of 10 mg/kg of paraquat (PQ) for 2 weeks. LV ejection fraction (EF, FIG. 8A) and % fractional shortening (% FS, FIG. 8B) of Tg-Sirt2α and NTg mice after PQ treatment is shown. […] Immunoblot analyses of catalase were conducted, using cardiac myocytes transduced with adenovirus vectors harboring constitutively actively FOXO1a (F-CA), dominant negative FOXO1a (F-DN), or Sirt2α. n=3-4. Values are presented as means±SE.
To this end, mice were treated for 14 days with paraquat, an inducer of oxidative stress. […] The paraquat-induced increases in oxidative stress were abolished in Tg-Sirt1 line 40 (FIG. 8D). […] Paraquat-induced increases in expression of catalase, an antioxidant, were greater in Tg-Sirt1 than in NTg hearts (FIG. 8E).

Histones 3 and 4 = test: Histone acetylation in treated cardiac myocytes (immunoblot); format: cell-based, rat
[3] = test system: neonatal rat cardiac myocytes; test: Cardiac myocyte morphology and death (shrinkage, detachment, cell size); format: cell-based
Procedure: A 110 kD protein was detected predominantly in the nuclear fraction. To examine the function of Sir2α in cardiac myocytes, nicotinamide (NAM) and sirtinol, inhibitors of Sir2 (Bitterman, et al. (2002) J. Biol. Chem. 277:45099-45107; Grozinger, et al. (2001) J. Biol. Chem. 276:38837-38843) were employed. Myocytes were also treated with trichostatin A (TSA), an inhibitor of class I and II HDACs (Johnstone (2002) Nat. Rev. Drug Discov. 1:287-299).
To examine whether cardiac myocyte apoptosis due to inhibition of Sir2α is mediated by p53, cardiac myocytes were transduced with adenovirus harboring temperature-sensitive dominant-negative p53 and cultured at 39° C. […] The temperature-sensitive dominant-negative p53 construct works as a dominant-negative only at high temperatures (Regula and Kirshenbaum (2001) J. Mol. Cell. Cardiol. 33:1435-1445). Consistent with this, the cell death inhibitory effect of dominant-negative p53 against NAM treatment was not observed at 32° C.
as §2, §3

p53 [4] = test: p53-Luc reporter gene assay; format: cell-based, rat; conditions: treated myocytes
Procedure: Transfection and Luciferase Assays. One million cells were transfected with 4 μg of plasmid. The transcriptional activity of p53 was evaluated using p53-Luc (2 pg) containing 15 copies of specific p53 DNA-binding sequence ([sequence]). A plasmid carrying the β-galactosidase gene (SV40-β-gal; 1 μg) was cotransfected. One microgram of expression plasmids pcDNA3.1, pcDNA3.1-Sir2α, or pcDNA 3.1-DN-Sir2α was employed.

p53 [5] = test: Immunoblot of nuclear fractions with anti-acetylated p53 antibodies; format: cell-based, rat; conditions: for Acetylation of p53 at K320 / Acetylation of p53 at K373/382: nuclear fractions of treated myocytes; for total amount of p53: treated myocytes
From the text: To examine whether the status of acetylation in p53 is affected by NAM or TSA in cardiac myocytes, nuclear fractions were subjected to immunoblot analysis with anti-acetylated p53 antibodies.
Anti-Sir2α antibody, anti-acetyl-p53 (Lys 320 and Lys 373/382) antibodies and anti-acetyl histone H3 and H4 antibodies were purchased from Upstate. Sirtinol and DEVD-CHO were from CALBIOCHEM, and Trichostatin A (TSA) was from SIGMA.

myocytes = conditions: treatment with resveratrol; Pillai et al. 2005; cited from earlier work

**Q.** With DEVD-CHO as the compound, how does the “TUNEL positive myocytes caused by NAM” value (cardiac myocytes [1]; effect of caspase-3 inhibitor on NAM-induced death) read?
**A.** prevented increases in TUNEL positive myocytes

**Q.** What about the “TUNEL-positive myocytes due to TSA” value (cardiac myocytes [1]; effect of caspase-3 inhibitor on TSA-induced death) of the same compound?
**A.** did not affect

**Q.** Which “cytoplasmic accumulation of mono- and oligo-nucleosomes induced by serum starvation” value (cardiac myocytes [2]; 10 mM, 48 hours (FIG. 1C)) does the source give for `CC(O)C(=O)O` (stereo not drawn) [lactate] here?
**A.** stimulated it

**Q.** Which results are given for `CC(NC(=O)c1ccccc1/N=C/c1c(O)ccc2ccccc12)c1ccccc1` (stereo not drawn) [sirtinol]?
**A.** mono- and oligo-nucleosomes in the cytoplasm (nuclear fragmentation) (cardiac myocytes [2]): significantly increased; cleavage of caspase-3 (caspase-3): induced cleavage of caspase-3

**Q.** What does the source list for `C[n+]1ccc(-c2cc[n+](C)cc2)cc1` [Paraquat, paraquat]?
**A.** LV contraction (EF, % FS) (mouse hearts): significantly reduced LV contraction; oxidative stress (8-OHdG staining, MDA content) (mouse hearts; NTg mouse hearts, ip 10 mg/kg, 14 days): significantly increased the extent of oxidative stress

**Q.** For `CC(/C=C/C(=O)NO)=C\[C@@H](C)C(=O)c1ccc(N(C)C)cc1` [TSA, trichostatin A], which “acetylation of Histones 3 and 4” value (Histones 3 and 4) is on record?
**A.** increased acetylation of Histones 3 and 4

**Q.** And the myocyte death ([3]; at high doses)?
**A.** caused death in some myocytes at high doses

**Q.** What about the cell size ([3]; treated cardiac myocytes) of the same compound?
**A.** modestly increased cell size

**Q.** What about the “mono- and oligo-nucleosomes in the cytoplasm (nuclear fragmentation)” value (cardiac myocytes [2]) of the same compound?
**A.** significantly increased nuclear fragmentation; also recorded: not as potent as NAM

**Q.** What about the TUNEL positive myocytes (cardiac myocytes [1]) of the same compound?
**A.** modest increase in TUNEL-positive myocytes

**Q.** And the “cleavage of caspase-3” value (caspase-3)?
**A.** did not

**Q.** What about the “activity of p53-Luc” value (p53 [4]) of the same compound?
**A.** failed to activate

**Q.** What about the “Acetylation of p53 at K320” value (p53 [5]) of the same compound?
**A.** not

**Q.** What about the “Acetylation of p53 at K373/382” value (p53 [5]) of the same compound?
**A.** not

**Q.** And the “total amount of p53” value (p53 [5])?
**A.** Neither NAM nor TSA significantly changed

**Q.** Which results are given for `NC(=O)c1cccnc1` [NAM, nicotinamide]?
**A.** acetylation of Histones 3 and 4 (Histones 3 and 4): increased acetylation of Histones 3 and 4; cell shrinkage and detachment, consistent with apoptosis ([3]; treatment for 48 hours): dose-dependent increases in cell shrinkage and detachment; mono- and oligo-nucleosomes in the cytoplasm (nuclear fragmentation) (cardiac myocytes [2]): significantly increased; TUNEL positive myocytes (cardiac myocytes [1]): increases in TUNEL positive myocytes; cleavage of caspase-3 (caspase-3): induced cleavage of caspase-3; activity of p53-Luc (p53 [4]): dose-dependently increased; Acetylation of p53 at K320 (p53 [5]): 2.8 fold; Acetylation of p53 at K373/382 (p53 [5]): 1.8 fold; total amount of p53 (p53 [5]): Neither NAM nor TSA significantly changed

**Q.** With `Oc1ccc(C=Cc2cc(O)cc(O)c2)cc1` [resveratrol] as the compound, how does the “myocyte cell death in vitro” value (myocytes) read?
**A.** prevents myocyte cell death
